Laboratory results: patent US10420755B2, “Use of ciclopirox for the treatment of congenital erythropoietic porphyria” (ASOCIACIÓN CENTRO DE INVESTIGACIÓN COOPERATIVA EN …, priority 2016, dated 2019)
Residue numbers refer to the chain shown, from its start. Where a SMILES comes first, the peptide text is derived from it. The star is where a group is joined. Cbz = O=C(OCc1ccccc1)*

How the values were obtained:
[1] = tested on: HEK 562; assay: Porphyrin accumulation (fluorocytes) by FACS in cellular model of CEP; format: cell-based, human; details: HEK 562 CEP model
Description: FIG. 3: Evaluation of UROI levels in a normal HEK cellular phenotype [Up-left graph], in a human in vitro cellular model of CEP (HEK 562) [Up-right graph], in HEK 562 with a tool compound (a proteasome inhibitor termed in the data MG) [Down-left graph], and in HEK 562 with ciclopirox [Down-right graph]. The accumulation of porphyrins is measured by fluorescence spectroscopy (fluorocytes) and is depicted in as the right-shift of the population as compared to normal cells (that are concentrated on the left due to the absence of intrinsic fluorescence). The numbers in bold indicate the percentage of cells in each of the specific populations. CP=ciclopirox, MG=proteasomal inhibitor MG132.
The current supporting data disclosed is in relation to a human in vitro cellular model of CEP (HEK 562) in which there is a stable genomic defect introduced into the uroporphyrinogen III synthase enzyme which drives the accumulation of toxic porphyrins and ultimately the pathology of CEP (including the characteristic disabling and disfiguring skin lesions in CEP patients). […] The accumulation of porphyrins is measured by fluorescence spectroscopy (fluorocytes) and appear shifted to the right as compared to normal cells (which are concentrated in the left area). The numbers in bold indicate the percentage of cells in each of the specific populations. […]

[2] = tested on: HEK 562 cells; assay: HPLC quantification of UROI in cellular model of CEP; format: cell-based, human; details: equimolar quantities of MG and ciclopirox
Description: Inset: variation of the concentration of UROI as a function of the CP concentration, in comparison to MG and the absence of any chemical. CP=ciclopirox, MG=proteasomal inhibitor MG132, UROI=uroporphyrinogen I.
Moreover, the reduction in the fluorescence corresponds to a decrease in the intracellular concentration of UROI (see FIG. 4).
HPLC was used to separate and quantify UROI and UROIII products from PBGD and UROIIIS-C73N enzymatic assays and from cellular extracts. HPLC was carried out on a ODS Hypersil C18 column (5 um, 3×200 mm; Thermo Scientific, MA, USA). Porphyrins were separated with a 15 min isocratic elution in a mobile phase of 89% 1M ammonium acetate buffer pH 5.16 and 11% Acetonitrile, at a flow rate of 0.5 mL/min, and were detected by fluorescence with an excitation wavelength 405 nm and emission wavelength 610 nm, which is characteristic of porphyrins. The sample injection volume was […].

[3] = tested on: mouse in vivo model of CEP; details: associated with elevation of cellular UROIIIS levels; cited from earlier work
[4] = tested on: murine model of CEP (P248Q+/+); assay: Murine model of CEP treated with ciclopirox in food; format: in vivo, mouse
Text: FIG. 5: Change in porphyrin levels and consequent effect on splenomegaly in mice treated with ciclopirox (CPX). A) Left: URO I or B) COPRO I porphyrin concentration in red blood cells (RBC) as determined by HPLC analysis for the mouse group treated with CPX (n=7, solid line) and the control group (n=9, dashed line). Right: representation of the same porphyrin levels but compared to their respective values at day 0 for the mice treated with CPX (solid line) and the untreated mice (dashed line). The reduction of porphyrins between the two groups is shown in grey dashed line (in percentage). C) Variation in the protoporphyrin IX (PROTO IX) concentration over time in the mouse group treated with CPX (solid line) and the control group (dashed line). D) Concentration of porphyrins in urine at day 45 of treatment (normalized versus creatinine concentration). E) Change in UROI levels in the liver at day 45 of treatment (weight normalized) F) CPX reduces splenomegaly after 45 days of treatment since the spleen volume of the untreated mice (top row) is higher than the CPX treated group (bottom row) Splenomegaly is directly associated with haemolytic anaemia.
Upon treatment disruption, the porphyrin levels are restored, but slowly.
Additionally, after 45 days of treatment, ciclopirox reduced in 40% the porphyrin levels in liver tissue (shown in FIG. 5-E for UROI) and the splenomegaly (FIG. 5-F)—evidence of reduced haemolysis. Moreover, there was a significant weight reduction of the spleen when comparing the ciclopirox group (mean 410±86 mg, FIG. 5-F bottom row) and the untreated group (mean 985±204 mg, FIG. 5-F top row).
A total of 16 animals (murine model of CEP) were used in the experiment and ciclopirox was mixed with the food pellets; 7 animals had food with ciclopirox (plasma levels achieved between 15 and 20 μM) and 9 animals were not given treatment. The isomer I porphyrin levels were monitored in the blood weekly. After a basal (pre-treatment) sample (day 0), treatment was started on day 2 and the first post-treatment sample was obtained on day 3, followed by weekly monitoring.

[5] = target: T1, UROIIIS (Homo sapiens, UniProt P10746); assay: Direct binding by NMR spectroscopy
T1 construct: made in house
T1 sequence (P10746 1-265): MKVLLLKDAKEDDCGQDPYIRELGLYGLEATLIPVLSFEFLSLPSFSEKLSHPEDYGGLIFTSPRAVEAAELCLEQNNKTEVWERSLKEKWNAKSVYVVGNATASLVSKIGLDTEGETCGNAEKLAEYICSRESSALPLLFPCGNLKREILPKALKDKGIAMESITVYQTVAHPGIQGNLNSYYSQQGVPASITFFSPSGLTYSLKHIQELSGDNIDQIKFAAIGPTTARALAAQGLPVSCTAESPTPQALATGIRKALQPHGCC

[6] = target: T2, C73N-UROIIIS (Homo sapiens, UniProt P10746, C73N); assay: In vitro enzymatic assay of UROIIIS (PBGD-coupled, as a function of PBG concentration); format: biochemical; details: ratio UROIIIS:ciclopirox 1:5
T2 construct: made in house
T2 sequence (P10746 1-265 C73N): T1 sequence (P10746 1-265) with C73N
Description: FIG. 1: evaluation of the C73N-UROIIIS catalytic activity as a function of the PBG concentration. Porphobilinogen deaminase (PBGD) converts porphobilinogen (PBG) into preuroporphirinogen, the substrate for UROIIIS. PBGD is added in excess, acting as a reagent and the experiment reports only on the catalytic activity of the uroporphyrinogen III synthase. The solid/dashed lines correspond to the experimental points in the absence/presence of ciclopirox at a ratio UROIIIS:ciclopyrox 1:5.
The in vitro activity of a deleterious variant of the UROIIIS is measured as a function of the PBG concentration. […] C73N-UROIIIS produces reduced catalytic activity of the enzyme (FIG. 1, solid line).
The assay is based on the method described by Jordan (Shoolingin-Jordan P M et al. (1997). Methods in enzymology 281: 327-336) with some modifications. […] of porphobilinogen deaminase (PBGD) at a concentration of […] in […] of buffer (20 mM Tris-HCl pH 8.0, NaCl 150 mM, pH 8.0) is add in a 96 weels plate. […] of the porphobilinogen (PBG) substrate are then added, diluted to different concentrations (0.1, 0.4, 0.8, 1.5, 2, 3, 4 mM) in the aforementioned buffer and are incubated at 37° C. for one minute. […] Finally, we measure the change of absorbance at 405 nm with respect to the control sample in a plate ABS reader.

[7] = target: T3, C73R- and P248Q-UROIIIS (Homo sapiens, UniProt P10746, C73R); assay: UROIIIS-GFP protein levels (GFP fluorescence) in HEK cells stably expressing mutants; format: cell-based; details: HEK cells expressing C73R or P248Q mutants, compared with WT-UROIIIS
T3 construct: expressed in transfected cells
T3 sequence (P10746 1-265 C73R): T1 sequence (P10746 1-265) with C73R
Text: FIG. 2: A fusion construct with GFP (C73R-UROIIIS-GFP) has been stably expressed in HEK cells to measure the increase in the protein levels, by monitoring the intrinsic GFP fluorescence. […] Introduction of the pathogenic mutations (i. e. C73R or P248Q) reduces the intrinsic fluorescence due to a decrease in the intracellular UROIIIS concentration. […] For comparison, data obtained with a powerful proteasome inhibitor (MG) is also included. Dashed lines correspond to error bars. CP=ciclopirox, MG=proteasomal inhibitor MG132.
Specifically, we have tested the protein expression for the two most aggressive mutations: C73R- and P248Q-UROIIIS (FIG. 2), utilising human embryonic kidney cells (HEK) stably expressing these mutations.

[8] = treated vs control group, up to day 45

SMILES: CC(C)C[C@@H](C=O)NC(=O)[C@H](CC(C)C)NC(=O)[C@H](CC(C)C)NC(=O)OCc1ccccc1 [MG] (Cbz-Leu-Leu-Leu-aldehyde)
- Porphyrin accumulation / cellular phenotype (fluorocytes) [1]: reduces toxic porphyrin levels
- UROI level by HPLC [2]: reduction of UROI
- Skin lesions [3]: decreased skin lesions

SMILES: Cc1cc(C2CCCCC2)n(O)c(=O)c1 [ciclopirox, 6-cyclohexyl-1-hydroxy-4-methyl-2(1H)-pyridone]
- Reduction of porphyrin levels in liver tissue (UROI) ([4]; after 45 days of treatment): 40%
- Splenomegaly ([4]; after 45 days of treatment): reduced
- Spleen weight (mean) ([4]; after 45 days of treatment, untreated group 985±204 mg): 410 ± 86 mg
- Isomer I porphyrins in urine ([4]; day 45, normalized versus creatinine): significantly reduced
- Protoporphyrin IX (PROTO IX) concentration ([4]; over time, treated vs control): increase the concentration
- COPRO I porphyrin in blood (RBC) [4, 8]: significantly reduced
- URO I porphyrin in blood (RBC) [4, 8]: significantly reduced
- Porphyrin accumulation / cellular phenotype (fluorocytes) [1]: largely restore the normal HEK cellular phenotype
- Direct binding to the enzyme [5]: Direct binding has also been demonstrated
- C73N-UROIIIS catalytic (enzymatic) activity [6]: recovers the enzymatic activity
- UROI level by HPLC [2]: reduction of UROI
- Intracellular UROIIIS-GFP fluorescence levels [7]: largely restitutes the fluorescence levels observed with WT-UROIIIS
